Test results: paper PMC11220827 (Frontiers in Pharmacology, 2024)
Several values for one entry are separate records, joined by “and”; a condition that tells them apart may be missing. Identical values can stand only once. Entries after “also recorded” stand apart in the source; their conditions may differ.

How the values were obtained:
ERβ Human Estrogen NHR = biological target: T1, ERβ Human Estrogen NHR (Homo sapiens, UniProt Q92731); assay: biochemical; type: binding
T1 construct: Panlabs (named as assay provider)
Protocol: (§1) Chemicals that are flagged for a target are tested in follow-up dose-response assays to establish potency of the interaction.
(§2) Relative light units (RLUs) of the CALUX assays were analysed as follows. For agonist assays,
(§3) background values (exposure to DMSO only) were subtracted, and the maximum activity of the
(§4) assay’s reference compound was set to 100%. For antagonist assays, the basal signal (exposure to fixed concentration of agonist only) was set to 100%. Activity of the samples was scaled accordingly,
(§5) resulting in expression of the data as “percentage of maximum reference response”. Graphs were
(§6) generated using the statistical software package GraphPad Prism V5.03. Using these graphs, lowest
(§7) effect concentrations (LOECs) and PC50 concentrations were determined; LOEC is defined as the
(§8) maximum reference compound activity for agonist assays, and 20% of the maximum reference
(§9) compound activity for antagonist assays. The PC50 is defined as the concentration where the activity
(§10) of the sample equals 50% of the maximum activity of the assay’s reference compound.
(§11) the test compound was divided by the amount of estrogens and androgens produced by the solvent
(§12) control-exposed cells. A sample was considered ‘active’ if it decreased the hormone production 0.8-
Pharmacology profiling assays
(§13) targets. The list of targets included the original panel of 44 targets (including receptors, ion channels,
(§14) transporters and enzymes) recommended by 4 major pharmaceutical companies as significant
reasoned to link to pathological effects.
(§15) are considered to represent significant effects (i.e. a “hit”).
(§16) around the control level. For several targets, additional concentration effect assays were conducted to
(§17) determine the potency (IC50). The concentrations tested (in duplicate) ranged between 30 nM and 100

[1] = in vivo; cited from earlier work
EGFR Human RTK Kinase = EGFR Human RTK Kinase (Homo sapiens, UniProt P00533); assay: biochemical; conditions: read-out: EGFR Human RTK Kinase Enzyme activity: % inhibition @10 µM
Protocol: as §1, §2, §3, §4, §5, §6, §7, §8, §9, §10, §11, §12
Pharmacology profiling assays
targets. The list of targets included the original panel of 44 targets (including receptors, ion channels, […]

Androgen pathway = system: Androgen pathway; design: method as in ToxCast; conditions: ref ToxCast, cited from earlier work; as to Androgen pathway: Cell Proliferation, Call: key: Pos = positive result; Neg = negative result; Inc = uncertain/inconclusive result; as to Androgen pathway: Dimerization, Call: key: Pos = positive result; Neg = negative result; Inc = uncertain/inconclusive result; as to Androgen pathway: Receptor binding, Call: key: Pos = positive result; Neg = negative result; Inc = uncertain/inconclusive result; as to Androgen pathway: Reporter protein Agonist, Call: key: Pos = positive result; Neg = negative result; Inc = uncertain/inconclusive result
THRα = system: THRα; design: method as in ToxCast; conditions: ref ToxCast; cited from earlier work
5-HT2A (h) = 5-HT2A (h) (Homo sapiens, UniProt P28223); assay: biochemical; type: binding; conditions: read-out: 5-HT2A (h) (agonist RL): % inhibition @10 µM
Protocol: as §1
Pharmacology profiling assays
as §13, §14
reasoned to link to pathological effects. Results showing an inhibition or stimulation higher than 50%
as §15
and 50% are indicative of weak to moderate effects and results showing an inhibition (or stimulation)
as §16, §17

mice [2] = conditions: oral administration; ref SCCS 2022; cited from earlier work
[3] = system: Syrian Hamster Embryo (SHE) cells; conditions: ref SCCS 2022; cited from earlier work
[4] = at 25°C, in vitro; ref Nan et al. (2014); cited from earlier work
dogs = conditions: male and female dogs; ref McClain et al. 2005; cited from earlier work
HepG2 and MCF-7 cells = conditions: 24 h
[5] = biological target: T2, human thyroid peroxidase (hTPO) (Homo sapiens, UniProt P07202)
T2 sequence (P07202 19-933): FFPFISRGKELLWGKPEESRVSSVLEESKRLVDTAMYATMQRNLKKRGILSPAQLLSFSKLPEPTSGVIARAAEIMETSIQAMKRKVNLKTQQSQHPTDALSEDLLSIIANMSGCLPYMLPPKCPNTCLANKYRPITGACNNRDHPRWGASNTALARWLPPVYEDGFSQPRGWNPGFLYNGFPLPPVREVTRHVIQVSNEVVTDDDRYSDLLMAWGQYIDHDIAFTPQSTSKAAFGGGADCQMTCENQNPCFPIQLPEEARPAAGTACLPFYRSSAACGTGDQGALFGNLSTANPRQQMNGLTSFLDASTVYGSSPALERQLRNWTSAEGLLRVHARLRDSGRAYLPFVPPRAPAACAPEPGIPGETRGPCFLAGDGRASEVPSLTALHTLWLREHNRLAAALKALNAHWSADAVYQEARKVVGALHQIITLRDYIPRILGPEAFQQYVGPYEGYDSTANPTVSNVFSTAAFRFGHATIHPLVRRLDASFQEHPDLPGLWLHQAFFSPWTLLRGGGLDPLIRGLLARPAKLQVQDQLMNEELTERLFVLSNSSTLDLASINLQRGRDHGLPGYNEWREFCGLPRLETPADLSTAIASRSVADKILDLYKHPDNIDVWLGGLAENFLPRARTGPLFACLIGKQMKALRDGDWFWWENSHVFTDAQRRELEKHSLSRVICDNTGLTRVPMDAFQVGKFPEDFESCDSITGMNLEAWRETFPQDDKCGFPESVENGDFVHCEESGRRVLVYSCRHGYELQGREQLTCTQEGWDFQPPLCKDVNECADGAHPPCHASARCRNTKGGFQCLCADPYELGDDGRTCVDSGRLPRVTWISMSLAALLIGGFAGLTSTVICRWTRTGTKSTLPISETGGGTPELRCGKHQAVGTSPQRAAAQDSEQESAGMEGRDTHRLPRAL
Protocol: hTPO was derived from Nthy-ori 3-1 cells. Cell lysate containing hTPO in Glycine-NaOH buffer (pH
9.0) was incubated for 30 minutes at 37°C in the presence of serial dilutions of the compounds in
(§18) DMSO (1% compound stock in incubation mixture).
was measured on a Berthold luminometer.
(§19) Preincubation with rat liver S9 fraction
(§20) To assess the effect of metabolism on the activity of the test
compound for these assays, preincubations with rat liver S9 were performed.

TRβ [6] = biological target: T3, TRβ (Homo sapiens, UniProt P10828)
T3 sequence (P10828 1-461): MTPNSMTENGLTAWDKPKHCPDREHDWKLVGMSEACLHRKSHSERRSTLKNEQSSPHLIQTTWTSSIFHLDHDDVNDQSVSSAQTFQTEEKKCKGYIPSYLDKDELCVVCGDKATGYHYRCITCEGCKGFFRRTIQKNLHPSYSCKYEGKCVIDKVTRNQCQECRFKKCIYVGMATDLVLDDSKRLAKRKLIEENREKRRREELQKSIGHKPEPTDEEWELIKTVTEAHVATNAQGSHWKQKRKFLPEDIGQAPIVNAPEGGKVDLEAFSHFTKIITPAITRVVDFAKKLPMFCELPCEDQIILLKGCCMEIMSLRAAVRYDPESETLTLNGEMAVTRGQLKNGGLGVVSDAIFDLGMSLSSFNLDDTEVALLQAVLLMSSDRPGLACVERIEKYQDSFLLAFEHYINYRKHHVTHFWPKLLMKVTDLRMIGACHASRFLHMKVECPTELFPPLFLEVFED
Protocol: (§21) using the U2-OS based CALUX cytotox bioassay. The cytotoxicity of each test chemical was assessed using the U2-OS based cytotoxicity CALUX bioassay. Concentrations causing >20% reduction of luminescence were considered cytotoxic.
(§22) cytotoxicity (relative induction in the cytotoxicity CALUX bioassay > 80%) were used for final
evaluation of analysis results.
(§23) induction in the cytotox CALUX bioassay > 80%) were used for final evaluation of analysis results.
(§24) All analysis results were expressed in molar (M) final in well.
(§25) For determination of the (anti-)ERα, (anti-)AR and (anti-)TRβ CALUX activities, CALUX cells were
(§26) seeded in assay medium. Following exposure of the CALUX cells to serial dilutions of the
(§27) compounds in triplicate for 24 h, the induction of luciferase production was quantified by measuring
(§28) luminescence following addition of the substrate luciferin. For antagonist assays, a fixed
(§29) concentration of assay agonist was present in each well, to generate a basal signal. On each plate, a
(§30) complete calibration curve for each respective bioassay was also analysed using the relevant reference
(§31) compounds. For the analyses in the presence of rat liver S9, 0.03% (v/v) of PB/BNF induced rat liver
(§32) S9 mix (including NADPH and an NADPH-regenerating system) was added to the cells directly after
(§33) addition of the compounds, which remained there for the duration of the exposure period (24 h) (van
as §2, §3, §4, §5, §6
effect concentrations (LOECs) and PC50 concentrations were determined; LOEC is defined as the […]

TRβ [7] = biological target: T3, TRβ; assay: TRβ CALUX assay (thyroid)
Protocol: as §21, §22
evaluation of analysis results.
as §23, §24, §25, §26, §27, §28, §29, §30, §31, §32, §33, §2, §3, §4, §5, §6, §7, §8, §9, §10

mice [8] = conditions: in the diet; ref SCCS 2022; cited from earlier work
Sprague-Dawley rats = conditions: cited from earlier work
H295R cells [9] = system: H295R cells
Protocol: as §18
was measured on a Berthold luminometer.
(§34) Serial dilutions of the compounds were incubated in Tris -buffer (pH 8.0) overnight at 4°C in the
(§35) incubation mixture). After incubation, TTR-bound and free T4 were separated on a Bio-Gel P-6DG
(§36) column. The eluate was added to assay medium after which TRβ CALUX cells were exposed for 24 h
(§37) For this TRβ CALUX exposure, serum-free assay medium was used.
(§38) wells plates in assay medium, and exposed for 48h to a serial dilution of the compound in triplicate
(§39) exposure, the assay medium was analysed on the ERα and AR CALUX bioassays as described
(§40) Changes in hormone levels compared to a vehicle control exposure
as §19, §20
(§41) compound for these assays, preincubations with rat liver S9 were performed. Compounds (10 μl
(§42) DMSO stock solution) were incubated for 0 h (control) or 3 h (test condition) in a total volume of 1
(§43) ml TRIS buffer in the presence of 1% (v/v) PB/BNF induced rat liver S9 mix (including NADPH and
(§44) an NADPH-regenerating system). After incubation, the reaction was stopped by the addition of ice
(§45) cold acetone, and samples were frozen to stimulate protein precipitation. After thawing, the
(§46) precipitated protein fraction was subsequently removed by centrifugation. The supernatant, cont aining
(§47) the metabolites and any remaining non-metabolised parent compound, was concentrated under a
(§48) gentle nitrogen flow. After evaporating to dryness, the sample was taken up in 50 μl DMSO followed
(§49) by the addition of 50 μl TRIS buffer. This extract was used for the exposure of the hTPO inhibition,
as §2, §3, §4, §5, §6, §7, §8, §9, §10, §11, §12

H295R cells [10] = system: H295R cells; remark: listed apart in the source
Protocol: as §18
was measured on a Berthold luminometer.
as §34, §35, §36, §37, §38, §39, §40, §19, §20, §41, §42, §43, §44, §45, §46, §47, §48, §49, §2, §3, §4, §5, §6, §7, §8, §9, §10, §11, §12

[11] = +S9 (preincubation with rat liver S9)

T1 sequence (Q92731 whole entry): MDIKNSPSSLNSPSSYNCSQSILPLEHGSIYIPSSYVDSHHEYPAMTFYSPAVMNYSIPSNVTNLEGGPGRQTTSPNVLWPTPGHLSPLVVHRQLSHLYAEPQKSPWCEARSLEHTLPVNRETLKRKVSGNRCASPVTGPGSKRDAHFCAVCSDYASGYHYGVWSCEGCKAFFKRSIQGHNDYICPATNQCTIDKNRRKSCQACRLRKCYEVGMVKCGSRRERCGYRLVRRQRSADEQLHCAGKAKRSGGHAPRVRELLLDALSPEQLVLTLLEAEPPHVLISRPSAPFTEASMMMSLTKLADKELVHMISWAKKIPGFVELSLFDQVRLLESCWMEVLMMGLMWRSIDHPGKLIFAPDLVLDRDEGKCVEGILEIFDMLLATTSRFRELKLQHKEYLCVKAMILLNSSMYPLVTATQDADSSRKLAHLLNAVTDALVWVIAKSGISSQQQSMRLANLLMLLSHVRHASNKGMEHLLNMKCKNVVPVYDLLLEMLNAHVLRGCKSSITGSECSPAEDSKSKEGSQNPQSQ
Chain of EGFR Human RTK Kinase (P00533 25-1210): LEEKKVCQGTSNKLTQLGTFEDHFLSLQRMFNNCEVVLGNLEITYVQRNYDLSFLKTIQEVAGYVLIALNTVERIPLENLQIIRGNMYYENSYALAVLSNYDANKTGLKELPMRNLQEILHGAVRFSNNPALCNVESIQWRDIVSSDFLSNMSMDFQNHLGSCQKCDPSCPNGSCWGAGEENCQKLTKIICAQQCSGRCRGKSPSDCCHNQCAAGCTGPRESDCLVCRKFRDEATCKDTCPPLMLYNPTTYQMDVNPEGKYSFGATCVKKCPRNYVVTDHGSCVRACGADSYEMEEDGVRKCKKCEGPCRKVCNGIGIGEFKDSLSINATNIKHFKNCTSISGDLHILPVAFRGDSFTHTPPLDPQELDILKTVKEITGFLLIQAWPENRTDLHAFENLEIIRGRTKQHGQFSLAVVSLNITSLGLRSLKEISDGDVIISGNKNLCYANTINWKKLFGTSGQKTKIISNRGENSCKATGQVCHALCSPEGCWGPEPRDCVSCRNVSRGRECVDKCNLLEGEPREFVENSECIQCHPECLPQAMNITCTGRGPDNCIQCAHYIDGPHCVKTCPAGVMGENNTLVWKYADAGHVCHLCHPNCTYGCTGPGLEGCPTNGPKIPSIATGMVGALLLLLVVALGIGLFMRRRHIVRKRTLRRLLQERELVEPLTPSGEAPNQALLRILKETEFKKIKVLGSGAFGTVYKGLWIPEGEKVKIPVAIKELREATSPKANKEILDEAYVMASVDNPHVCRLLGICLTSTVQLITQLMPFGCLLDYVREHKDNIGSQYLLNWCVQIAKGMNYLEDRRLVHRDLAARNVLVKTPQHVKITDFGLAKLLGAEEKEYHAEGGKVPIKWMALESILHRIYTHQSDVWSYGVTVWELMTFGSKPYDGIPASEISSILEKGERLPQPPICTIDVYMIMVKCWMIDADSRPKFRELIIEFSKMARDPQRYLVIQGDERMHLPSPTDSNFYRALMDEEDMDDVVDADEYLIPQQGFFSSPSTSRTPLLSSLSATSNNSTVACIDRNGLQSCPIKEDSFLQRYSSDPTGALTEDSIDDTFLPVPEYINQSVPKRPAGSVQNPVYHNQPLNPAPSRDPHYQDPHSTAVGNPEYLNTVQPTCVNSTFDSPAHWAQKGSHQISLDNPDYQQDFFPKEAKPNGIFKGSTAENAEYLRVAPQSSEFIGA
Chain of 5-HT2A (h) (P28223 whole entry): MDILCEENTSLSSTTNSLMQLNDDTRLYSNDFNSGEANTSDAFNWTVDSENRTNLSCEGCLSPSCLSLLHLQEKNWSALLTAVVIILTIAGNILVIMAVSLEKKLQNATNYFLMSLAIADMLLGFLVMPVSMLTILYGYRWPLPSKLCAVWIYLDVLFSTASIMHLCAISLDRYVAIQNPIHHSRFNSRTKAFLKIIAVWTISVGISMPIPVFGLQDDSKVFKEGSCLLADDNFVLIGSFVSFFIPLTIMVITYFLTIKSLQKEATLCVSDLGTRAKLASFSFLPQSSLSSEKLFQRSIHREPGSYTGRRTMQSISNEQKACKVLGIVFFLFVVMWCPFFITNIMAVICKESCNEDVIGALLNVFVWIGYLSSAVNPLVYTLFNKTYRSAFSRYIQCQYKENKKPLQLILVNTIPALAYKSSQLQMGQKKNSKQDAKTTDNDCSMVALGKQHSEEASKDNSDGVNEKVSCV

Structure (SMILES): O=c1c(-c2ccc(O)cc2)coc2cc(O)ccc12 [Daidzein, DAIDZEIN]
- ERβ LOEC (binding to receptor) (ERβ Human Estrogen NHR; pharmacology profiling, LOEC = 10% of maximum reference compound activity): 3.25 nM and 3.2 nM
- inhibition at 10 µM (ERβ Human Estrogen NHR; read-out: ERβ Human Estrogen NHR Binding (Agonist): % inhibition @10 µM): 100%
- Highest measured plasma concentration [1]: 3.14 µM
- inhibition at 10 µM (EGFR Human RTK Kinase): 17.8%
- Androgen pathway: Cell Proliferation, Call (Androgen pathway): Neg
- Androgen pathway: Dimerization, Call (Androgen pathway): Neg
- Androgen pathway: Receptor binding, Call (Androgen pathway): Neg
- Androgen pathway: Reporter protein Agonist, Call (Androgen pathway): Neg
- Androgen pathway: Reporter protein Antagonist, Call (Androgen pathway): Inc
- Androgen pathway: mRNA induction, Call (Androgen pathway): Neg
- AC50 (Androgen pathway; read-out: Androgen pathway: Reporter protein Antagonist, AC50): 36.1 µM
- Thyroid pathway: Receptor binding (THRα), Call (THRα): Neg (Neg = negative result)
- inhibition at 10 µM (5-HT2A (h)): 38.9%

Structure (SMILES): O=c1c(-c2ccc(O)cc2)coc2cc(O)cc(O)c12 [Genistein, 5,7-DIHYDROXY-3-(4-HYDROXYPHENYL)-4-BENZOPYRONE]
- In vivo DNA damage/Comet assay result (mice [2]): Negative in mice after oral administration
- Cell transformation assay (SHE cells) result [3]: one was positive
- pKa (dissociation constant) [4]: 7.25 ± 0.84
- NOAEL, 4 weeks (dogs): > 500 mg/kg/day
- NOAEL, 52 weeks (dogs): > 500 mg/kg/day
- Metabolism by HepG2 or MCF-7 cells (HepG2 and MCF-7 cells): metabolized by both cell types
- LOEC for hTPO inhibition [5]: 19 ± 8.9 µM
- TPO LOEC, Inhibition [5]: 19 µM
- hTPO inhibition (thyroid) LOEC, +S9 [5, 11]: >−4.7 Log M
- hTPO inhibition (thyroid) LOEC, −S9 ([5]; −S9): −4.7 Log M
- Anti-TRß antithyroid LOEC, +S9 (TRβ [6]; +S9 (rat liver)): >−5 Log M
- Anti-TRß antithyroid LOEC, −S9 (TRβ [6]; −S9): >−5 Log M
- TRß thyroid LOEC, +S9 (TRβ [7]; +S9 (rat liver)): >−5 Log M
- TRβ Agonist/antagonist effect (TRβ [7]; CALUX): did not activate or antagonize the thyroid receptor-β; also recorded: No effect
- TRß thyroid LOEC, −S9 (TRβ [7]; −S9): >−5 Log M
- P53-/- Mouse Tumorigenesis Assay result (mice [8]): negative
- NOAEL, female rats (Sprague-Dawley rats; 5 ppm in feed, ref NTP 2008): 0.5 mg/kg
- NOAEL, male rats (PoD) (Sprague-Dawley rats; 5 ppm in feed, ref NTP 2008): 0.3 mg/kg
- LOAEL, male rats (Sprague-Dawley rats; ref SCCS 2022): 7 mg/kg
- Estrogen synthesis, Increase/decrease (H295R cells [9]): No effect
- Steroidogenesis (ERα) 17β-estradiol LOEC, +S9 (H295R cells [9]; [11]): >−6.7 Log M
- Steroidogenesis (ERα) 17β-estradiol LOEC, −S9 (H295R cells [9]; −S9): >−6 Log M
- Steroidogenesis (AR) Testosterone LOEC, +S9 (H295R cells [10]; [11]): −5.7 Log M
- LOEC, androgen synthesis (impaired) (H295R cells [10]; H295R): 3.2 × 10^−6 ± 0 M
- Steroidogenesis (AR) Testosterone LOEC, −S9 (H295R cells [10]; −S9): −5.5 Log M
